Data on three compounds can be found in patent US9580444B2, “Polycyclic pyrazolinone derivative and herbicide comprising same as effective component thereof” (priority 2013, dated 2017).

Format in all cases: in vivo
In data set [1] the test system is Abutilon theophrasti (velvetleaf). Description: Test Example-4: herbicidal effect by a foliage treatment after weeds are generated under upland field conditions. The settings on record: 500 g a.i/ha, foliage treatment after emergence, about 14 days after treatment, score 0-5. Summed up: (§1)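 Read-out is a visual six-stage score from 0 to 5 for weed control or corn phytotoxicity, taken about 14 days after a uniform foliar spray. Plants had grown 14 days from seed in upland soil before the compound was applied at a predetermined dosage in 4000 L water per hectare.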

The test system of data set [2] is Amaranthus viridis (green amaranthus). The data set is described as above. The settings on record: 500 g a.i/ha, foliage treatment after emergence, about 14 days after treatment, score 0-5. Summed up:
as §1

The subject of data set [3] is Chenopodium album (common lambsquarters). Described as above. The note with it: 500 g a.i/ha, foliage treatment after emergence, about 14 days after treatment, score 0-5. Summed up:
as §1

The test system of data set [4] is Cyperus difformis (smallflower umbrella plant). Kind of data set: Test Example-1: herbicidal effect by a treatment before weeds are generated under submerged conditions. The note with it: 500 g a.i/ha, pre-emergence treatment, about 15 days after treatment, score 0-5. Summed up:
(§2)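 Weed seeds were sown in puddled paddy soil under flooding, then the diluted formulated compound was added to the water the same day at a predetermined dosage, and weed control was rated roughly 15 days afterwards in six stages (0–5).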

In data set [5] the test system is Monochoria vaginalis (monochoria). The description is as above. The note with it: 500 g a.i/ha, pre-emergence treatment, about 15 days after treatment, score 0-5. Summed up: as §2
Data set [6] relates to Eleocharis acicularis (needle spikerush). The description is as above. The settings on record: 500 g a.i/ha, pre-emergence treatment, about 15 days after treatment, score 0-5. Summed up:
as §2

Data set [7] deals with Scirpus juncoides (bulrush). The data set is described as above. The settings on record: 500 g a.i/ha, pre-emergence treatment, about 15 days after treatment, score 0-5. Summed up:
as §2

Data set [8] deals with other annual broad leaf weeds (Lindernia procumbens, Rotala indica, Elatine triandra). The data set is described as above. The note with it: 500 g a.i/ha, pre-emergence treatment, about 15 days after treatment, score 0-5. Summed up:
as §2

Data set [9] concerns Echinochloa oryzicola (barnyard grass). Described as above. The settings on record: 500 g a.i/ha, pre-emergence treatment, about 15 days after treatment, score 0-5. Summed up: as §2
Data set [10] concerns corn. Description: Test Example-4: phytotoxicity by a foliage treatment after weeds are generated under upland field conditions. The note with it: 500 g a.i/ha, foliage treatment after emergence, about 14 days after treatment, score 0-5. Summed up:
as §1

Structures are written as SMILES.

On to `C=CCOc1cc(-c2c(Cl)n3n(c2=O)CCCC3)c(F)cc1Cl` [Example 1-201], for which the “Herbicidal effect Abutilon theophrast” value in data set [1] is 5 (Herbicidal effect/phytotoxicity was 90% or greater). Besides, in data set [2], the “Herbicidal effect Amaranthus viridis” value was 5 (Herbicidal effect/phytotoxicity was 90% or greater). In data set [3], the “Herbicidal effect Chenopodium album” value is given as 5 (Herbicidal effect/phytotoxicity was 90% or greater). Besides, the “Herbicidal effect Cyperus difformis” value in data set [4] is listed as 5 (Herbicidal effect/phytotoxicity was 90% or greater). For the same compound, the “Herbicidal effect Monochoria vaginalis” value in data set [5] is recorded as 5 (Herbicidal effect/phytotoxicity was 90% or greater). For the same compound, the “Herbicidal effect Eleocharis acicularis” value in data set [6] is listed as 5 (Herbicidal effect/phytotoxicity was 90% or greater). Further, the “Herbicidal effect Scirpus juncoides” value in data set [7] is on record as 5 (Herbicidal effect/phytotoxicity was 90% or greater). Also, the “Herbicidal effect Broadleaf weed” value in data set [8] is on record as 5 (Herbicidal effect/phytotoxicity was 90% or greater). In data set [9], the “Herbicidal effect Echinochloa oryzicola” value is on record as 5 (Herbicidal effect/phytotoxicity was 90% or greater). The “Phytotoxicity Corn” value in data set [10] is given as 2 (Herbicidal effect/phytotoxicity was 30% to 50%).

On to `CC#CCOc1cc(-c2c(Cl)n3n(c2=O)CCCC3)c(F)cc1Cl` [Example 1-246], for which, in data set [1], the “Herbicidal effect Abutilon theophrast” value is on record as 5 (Herbicidal effect/phytotoxicity was 90% or greater). For the same compound, the “Herbicidal effect Amaranthus viridis” value in data set [2] was 5 (Herbicidal effect/phytotoxicity was 90% or greater). Moreover, the “Herbicidal effect Chenopodium album” value in [3] was 5 (Herbicidal effect/phytotoxicity was 90% or greater). Further, the “Herbicidal effect Cyperus difformis” value in data set [4] was 5 (Herbicidal effect/phytotoxicity was 90% or greater). Moreover, in [5], the “Herbicidal effect Monochoria vaginalis” value is on record as 5 (Herbicidal effect/phytotoxicity was 90% or greater). Besides, in data set [6], the “Herbicidal effect Eleocharis acicularis” value is 5 (Herbicidal effect/phytotoxicity was 90% or greater). Besides, in [7], the “Herbicidal effect Scirpus juncoides” value is reported as 5 (Herbicidal effect/phytotoxicity was 90% or greater). The “Herbicidal effect Broadleaf weed” value in data set [8] is reported as 5 (Herbicidal effect/phytotoxicity was 90% or greater). In addition, the “Herbicidal effect Echinochloa oryzicola” value in [9] is recorded as 5 (Herbicidal effect/phytotoxicity was 90% or greater). Further, in [10], the “Phytotoxicity Corn” value is listed as 1 (Herbicidal effect/phytotoxicity was 10% to 30%).

`O=c1c(-c2ccc(Cl)cc2F)c(Cl)n2n1CCCC2` [Example 1-125]: the “Herbicidal effect Abutilon theophrast” value in [1] was 5 (Herbicidal effect/phytotoxicity was 90% or greater). Also, the “Herbicidal effect Amaranthus viridis” value in [2] was 5 (Herbicidal effect/phytotoxicity was 90% or greater). For the same compound, the “Herbicidal effect Chenopodium album” value in data set [3] is recorded as 5 (Herbicidal effect/phytotoxicity was 90% or greater). The “Herbicidal effect Cyperus difformis” value in [4] was 5 (Herbicidal effect/phytotoxicity was 90% or greater). Moreover, in data set [5], the “Herbicidal effect Monochoria vaginalis” value is reported as 5 (Herbicidal effect/phytotoxicity was 90% or greater). For the same compound, the “Herbicidal effect Eleocharis acicularis” value in data set [6] is reported as 5 (Herbicidal effect/phytotoxicity was 90% or greater). For the same compound, the “Herbicidal effect Scirpus juncoides” value in data set [7] is on record as 5 (Herbicidal effect/phytotoxicity was 90% or greater). The “Herbicidal effect Broadleaf weed” value in [8] is 5 (Herbicidal effect/phytotoxicity was 90% or greater). Besides, in data set [9], the “Herbicidal effect Echinochloa oryzicola” value is reported as 5 (Herbicidal effect/phytotoxicity was 90% or greater). Besides, the “Phytotoxicity Corn” value in [10] is on record as 1 (Herbicidal effect/phytotoxicity was 10% to 30%).
